In US8101550B2, “Anthranilic acid diamide derivative with hetero-aromatic and hetero-cyclic substituents” (Bayer Cropscience AG, priority 2006, dated 2012):

Assay: log P determination by HPLC on reverse-phase column (EEC Directive 79/831 Annex V.A8)
Type: physicochemical
Details: HPLC on reverse-phase column
Description: The log P values stated in the foregoing tables and preparation examples are determined in accordance with EEC Directive 79/831 Annex V.A8 by means of HPLC (High Performance Liquid Chromatography) on a reverse-phase column (C 18). Temperature: 43° C.
The determination by LC-MS in the acidic range takes place at a pH of 2.7 using 0.1% aqueous formic acid and acetonitrile (containing 0.1% formic acid) as eluents; linear gradient from 10% acetonitrile to 95% acetonitrile.
Calibration is with unbranched alkan-2-ones (having 3 to 16 carbon atoms) of known log P value (log P values determined from the retention times by linear interpolation between two successive alkanones).

Structure (SMILES) | logP
CNC(=O)c1cc(Cl)cc(C)c1NC(=O)c1cc(Cn2nnn(-c3ccc(Cl)cc3)c2=O)nn1-c1ncccc1Cl [I-1-38] | 3.28
CNC(=O)c1cc(Cl)cc(C)c1NC(=O)c1cc(Cn2nc(C(F)(F)F)nc2C(F)(F)F)nn1-c1c(Cl)cccc1Cl [I-1-41] | 4.13
CNC(=O)c1cc(Cl)cc(C)c1NC(=O)c1cc(Cn2cc(C(F)(F)F)cn2)nn1-c1ncccc1Cl [I-1-42] | 2.76
Cc1cc(Cl)cc(C(=O)NC(C)C)c1NC(=O)c1cc(Cn2cc(C(F)(F)F)cn2)nn1-c1ncccc1Cl [I-1-43] | 3.20
CNC(=O)c1cc(Cl)cc(C)c1NC(=O)c1cc(Cn2ccc(C(F)(F)F)n2)nn1-c1ncccc1Cl [I-1-44] | 2.92
CNC(=O)c1cc(Cl)cc(C)c1NC(=O)c1cc(Cn2cc(I)cn2)nn1-c1ncccc1Cl [I-1-45] | 2.67
Cc1cc(Cl)cc(C(=O)NC2CC2)c1NC(=O)c1cc(Cn2cc(C(F)(F)C(F)(F)F)c(C(F)(F)C(F)(F)F)n2)nn1-c1ncccc1Cl [I-1-46] | 4.58
Cc1cc(Cl)cc(C(=O)NCC#N)c1NC(=O)c1cc(Cn2cc(C(F)(F)C(F)(F)F)c(C(F)(F)C(F)(F)F)n2)nn1-c1ncccc1Cl [I-1-47] | 4.31
Cc1cc(Cl)cc(C(N)=O)c1NC(=O)c1cc(Cn2cc(C(F)(F)C(F)(F)F)c(C(F)(F)C(F)(F)F)n2)nn1-c1ncccc1Cl [I-1-48] | 4.15
Cc1cc(Cl)cc(C(=O)NCC#N)c1NC(=O)c1cc(Cn2nc(C(F)(F)F)nc2C(F)(F)F)nn1-c1ncccc1Cl [I-1-49] | 3.97
Cc1cc(Cl)cc(C(N)=O)c1NC(=O)c1cc(Cn2nc(C(F)(F)F)nc2C(F)(F)F)nn1-c1ncccc1Cl [I-1-50] | 3.88
Cc1cc(Cl)cc(C(=O)NC(C)C)c1NC(=O)c1cc(Cn2nnn(-c3c(C)cccc3Cl)c2=O)nn1-c1ncccc1Cl [I-1-51] | 3.52
Cc1cc(Br)cc(C(=O)NC2CC2)c1NC(=O)c1cc(Cn2cc(C(F)(F)C(F)(F)F)c(C(F)(F)C(F)(F)F)n2)nn1-c1ncccc1Cl [I-1-52] | 4.59
Cc1cc(Br)cc(C(N)=O)c1NC(=O)c1cc(Cn2cc(C(F)(F)C(F)(F)F)c(C(F)(F)C(F)(F)F)n2)nn1-c1ncccc1Cl [I-1-53] | 4.17
Cc1cc(Cl)cc(C(=O)NC2CC2)c1NC(=O)c1cc(Cn2nc(C(F)(F)F)nc2C(F)(F)F)nn1-c1ncccc1Cl [I-1-54] | 3.61
Cc1cc(Cl)cc(C(=O)NCC#N)c1NC(=O)c1cc(Cn2nc(C(F)(F)F)nc2C(F)(F)F)nn1-c1ncccc1Cl [I-1-55] | 3.40
Cc1cc(Br)cc(C(=O)NCC#N)c1NC(=O)c1cc(Cn2nc(C(F)(F)F)nc2C(F)(F)F)nn1-c1ncccc1Cl [I-1-56] | 3.44
Cc1cc(Br)cc(C(=O)NC2CC2)c1NC(=O)c1cc(Cn2nc(C(F)(F)F)nc2C(F)(F)F)nn1-c1ncccc1Cl [I-1-57] | 3.67
CNC(=O)c1cc(Br)cc(C)c1NC(=O)c1cc(Cn2nc(C(F)(F)F)cc2C(F)(F)F)nn1-c1ncccc1Cl [I-1-58] | 3.76
Cc1cc(Br)cc(C(=O)NCC#N)c1NC(=O)c1cc(Cn2nc(C(F)(F)F)cc2C(F)(F)F)nn1-c1ncccc1Cl [I-1-59] | 3.65
Cc1cc(Br)cc(C(=O)NC2CC2)c1NC(=O)c1cc(Cn2nc(C(F)(F)F)cc2C(F)(F)F)nn1-c1ncccc1Cl [I-1-60] | 3.91
Cc1cc(Br)cc(C(N)=O)c1NC(=O)c1cc(Cn2nc(C(F)(F)F)cc2C(F)(F)F)nn1-c1ncccc1Cl [I-1-61] | 3.53
CNC(=O)c1cc(Cl)cc(C)c1NC(=O)c1cc(Cn2cc(I)c(C(F)(F)F)n2)nn1-c1ncccc1Cl [I-1-62] | 3.41
Cc1cc(Cl)cc(C(=O)NC(C)C)c1NC(=O)c1cc(Cn2cc(I)c(C(F)(F)F)n2)nn1-c1ncccc1Cl [I-1-63] | 3.85
CNC(=O)c1cc(Cl)cc(C)c1NC(=O)c1cc(Cn2cc(C(F)(F)C(F)(F)F)cn2)nn1-c1ncccc1Cl [I-1-64] | 3.21
Cc1cc(Cl)cc(C(=O)NC(C)C)c1NC(=O)c1cc(Cn2cc(C(F)(F)C(F)(F)F)cn2)nn1-c1ncccc1Cl [I-1-65] | 3.67

Structure (SMILES) | logP
CNC(=O)c1cc(Cl)cc(C)c1NC(=O)c1cc(Cn2cc(Br)c(C(F)(F)F)n2)nn1-c1ncccc1Cl [I-1-66] | 3.38
Cc1cc(Cl)cc(C(=O)NC(C)C)c1NC(=O)c1cc(Cn2cc(Br)c(C(F)(F)F)n2)nn1-c1ncccc1Cl [I-1-67] | 3.78
CNC(=O)c1cc(Br)cc(C)c1NC(=O)c1cc(Cn2cc(Br)c(C(F)(F)F)n2)nn1-c1ncccc1Cl [I-1-68] | 3.46
Cc1cc(Br)cc(C(=O)NC(C)C)c1NC(=O)c1cc(Cn2cc(Br)c(C(F)(F)F)n2)nn1-c1ncccc1Cl [I-1-69] | 3.92
CNC(=O)c1cc(Br)cc(C)c1NC(=O)c1cc(Cn2cc(Cl)c(C(F)(F)C(F)(F)F)n2)nn1-c1ncccc1Cl [I-1-70] | 3.94
Cc1cc(Br)cc(C(=O)NC(C)C)c1NC(=O)c1cc(Cn2cc(Cl)c(C(F)(F)C(F)(F)F)n2)nn1-c1ncccc1Cl [I-1-71] | 4.40
Cc1cc(Br)cc(C(=O)NC2CC2)c1NC(=O)c1cc(Cn2cc(Cl)c(C(F)(F)C(F)(F)F)n2)nn1-c1ncccc1Cl [I-1-72] | 4.14
Cc1cc(Br)cc(C(=O)NCC#N)c1NC(=O)c1cc(Cn2cc(Cl)c(C(F)(F)C(F)(F)F)n2)nn1-c1ncccc1Cl [I-1-73] | 3.87
Cc1cc(Br)cc(C(N)=O)c1NC(=O)c1cc(Cn2cc(Cl)c(C(F)(F)C(F)(F)F)n2)nn1-c1ncccc1Cl [I-1-74] | 3.68
CSC[C@H](C)NC(=O)c1cc(Cl)cc(C)c1NC(=O)c1cc(Cn2nc(C(F)(F)F)nc2C(F)(F)F)nn1-c1ncccc1Cl [I-1-75] | 4.04
CCNC(=O)OC[C@H](C)NC(=O)c1cc(Cl)cc(C)c1NC(=O)c1cc(Cn2nc(C(F)(F)F)nc2C(F)(F)F)nn1-c1ncccc1Cl [I-1-77] | 3.58
CNC(=O)OC[C@H](C)NC(=O)c1cc(Cl)cc(C)c1NC(=O)c1cc(Cn2nc(C(F)(F)F)nc2C(F)(F)F)nn1-c1ncccc1Cl [I-1-78] | 3.36
Cc1cc(Cl)cc(C(=O)NCC#N)c1NC(=O)c1cc(Cn2nc(C(F)(F)F)nc2C(F)(F)F)nn1-c1ncccc1Cl [I-1-79] | 3.62
CNC(=O)c1cc(Br)cc(C)c1NC(=O)c1cc(Cn2ccc(C(F)(F)F)n2)nn1-c1ncccc1Cl [I-1-80] | 2.99
Cc1cc(Br)cc(C(=O)NC(C)C)c1NC(=O)c1cc(Cn2ccc(C(F)(F)F)n2)nn1-c1ncccc1Cl [I-1-81] | 3.46
Cc1cc(Br)cc(C(=O)NC2CC2)c1NC(=O)c1cc(Cn2ccc(C(F)(F)F)n2)nn1-c1ncccc1Cl [I-1-82] | 3.18
Cc1cc(Br)cc(C(N)=O)c1NC(=O)c1cc(Cn2ccc(C(F)(F)F)n2)nn1-c1ncccc1Cl [I-1-83] | 2.75
CSC[C@H](C)NC(=O)c1cccc(C)c1NC(=O)c1cc(Cn2nc(C(F)(F)F)nc2C(F)(F)F)nn1-c1ncccc1Cl [I-1-84] | 3.62
Cc1cc(Br)cc(C(=O)NCC#N)c1NC(=O)c1cc(Cn2ccc(C(F)(F)F)n2)nn1-c1ncccc1Cl [I-1-85] | 2.98
CNC(=O)c1cc(Cl)cc(C)c1NC(=O)c1cc(Cn2nc(C(F)(F)C(F)(F)F)nc2C(F)(F)F)nn1-c1ncccc1Cl [I-1-86] | 3.78
Cc1cccc(C(=O)N[C@@H](C)CS(C)(=O)=O)c1NC(=O)c1cc(Cn2nc(C(F)(F)F)nc2C(F)(F)F)nn1-c1ncccc1Cl [I-1-87] | 2.92
CNC(=O)c1cc(Cl)cc(C)c1NC(=O)c1cc(Cn2nnn(-c3ccc(C(F)(F)F)cc3)c2=O)nn1-c1ncccc1Cl [I-1-88] | 3.61
Cc1cc(Cl)cc(C(=O)NC(C)C)c1NC(=O)c1cc(Cn2nnn(-c3ccc(C(F)(F)F)cc3)c2=O)nn1-c1ncccc1Cl [I-1-89] | 3.96
CNC(=O)c1cc(Cl)cc(C)c1NC(=O)c1cc(Cn2nnn(-c3cc(C(F)(F)F)cc(C(F)(F)F)c3)c2=O)nn1-c1ncccc1Cl [I-1-90] | 4.08
Cc1cc(Cl)cc(C(=O)NC(C)C)c1NC(=O)c1cc(Cn2nnn(-c3cc(C(F)(F)F)cc(C(F)(F)F)c3)c2=O)nn1-c1ncccc1Cl [I-1-91] | 4.51
Cc1cccc(C(=O)NC(C)C[S+](C)[O-])c1NC(=O)c1cc(Cn2nc(C(F)(F)F)nc2C(F)(F)F)nn1-c1ncccc1Cl (stereo not shown) [I-1-92] | 2.65

Same assay, conditions: reverse-phase C18 HPLC column; HPLC, reverse-phase column (C 18), 43° C., acidic range pH 2.7; read-out: logP

Structure (SMILES) | chromatographic logP
Cc1cc(Cl)cc2c(=O)oc(-c3cc(Cn4nc(C(F)(F)F)cc4C(F)(F)F)nn3-c3ncccc3Cl)nc12 [Example 2, 2-[5-(3,5-Bistrifluoromethylpyrazol-1-ylmethyl)-2-(3-chloropyridin-2-yl)-2H-pyrazol-3-yl]-6-chloro-8-methylbenzo[d][1,3]oxazin-4-one] | 5.11
O=C(O)c1cc(Cn2nc(C(F)(F)F)cc2C(F)(F)F)nn1-c1ncccc1Cl [Example 3, 5-(3,5-Bistrifluoromethylpyrazol-1-ylmethyl)-2-(3-chloropyridin-2-yl)-2H-pyrazole-3-carboxylic acid] | 2.86
COC(=O)c1cc(Cn2nc(C(F)(F)F)cc2C(F)(F)F)nn1-c1ncccc1Cl [Example 4, Methyl 5-(3,5-bistrifluoromethylpyrazol-1-ylmethyl)-2-(3-chloropyridin-2-yl)-2H-pyrazole-3-carboxylate] | 3.71
COC(=O)c1cc(COS(C)(=O)=O)nn1-c1ncccc1Cl [Example 5, Methyl 2-(3-chloropyridin-2-yl)-5-methanesulphonyloxymethyl-2H-pyrazole-3-carboxylate] | 1.55
COC(=O)c1cc(CO)nn1-c1ncccc1Cl [Example 6, Methyl 2-(3-chloropyridin-2-yl)-5-hydroxymethyl-2H-pyrazole-3-carboxylate] | 1.26
COC(=O)c1cc(C(=O)OC)n(-c2ncccc2Cl)n1 [Example 7, Dimethyl 1-(3-chloropyridin-2-yl)-1H-pyrazole-3,5-dicarboxylate] | 1.97
